In publication PMC12202533, “Mechanistic Insights and Anti-cancer Activity of 2H-benzo[b][1,4]oxazin-3(4H)-one Linked 1,2,3-Triazoles in Human Cancer Cells” (Frontiers in Pharmacology, 2025):
Where two headings read alike, the source gives them in different places.

How the values were obtained:
A549 = test: CCK-8 cell viability assay and IC50 measurement; format: cell-based, human; conditions: Homo sapiens; for viability at 40 µM / inhibition at 40 µM: A549, 40 μM, 48 h; for viability at 40 µM: CCK-8, read-out: Cell viability (100%), 40 μM, 48 h, A549; for inhibition at 40 µM: read-out: inhibition rate
Procedure: (§1) In order to investigate the anticancer activity of new synthetic 1,4-benzoxazinone-linked 1,2,3-triazole compounds, we chose several cancer cell lines, including A549 (lung), Huh7 (liver), MCF-7 (breast), HCT-116 (colon), and SKOV3 (ovary), and measured cell viability using the CCK-8 assay. Cells were exposed to 40 μM of the compounds for 48 h, and then cell viability was determined. […] In addition, we used the reference drug gefitinib as a positive control and measured its cell viability on different cell lines. […] We used BEAS-2B cells as a normal cell line to determine the toxic effects of these compounds on normal cells. […] Furthermore, we evaluated the IC50 of these compounds in A549.
(§2) Human cancer cell lines A549, Huh7, MCF-7, HCT-116, and SKOV3 were obtained from ATCC. The cells were cultured in DMEM or RPMI 1640 medium supplemented with 10% FBS and 1% penicillin/streptomycin and incubated at 37°C in a CO2-humidified atmosphere.
(§3) Cells were cultured in DMEM or RPMI 1640 medium containing 10% FBS and 1% penicillin/streptomycin at 37°C and 5% CO2. The CCK-8 assay was performed on several human cancer cell lines, including A549, Huh7, MCF-7, HCT-116, and SKOV3, according to the manufacturer’s instructions. Cells were plated at a density of 5 × 10^3 cells per well in a 96-well plate. After 24 h of incubation, cells were treated with 40 μM compounds for 48 h. Cell viability was assessed by adding 10 μL of CCK-8 reagent, dissolved in the cell culture medium, and incubating for 1 h. Absorbance was measured at 450 nm using a microplate reader. IC50 values were determined using a dose-response curve with six concentrations (0, 10, 20, 40, 80, and 160 μM), and IC50 values were calculated using GraphPad Prism software.

A549 cells [1] = test: Autophagy staining assay (MDC probe); format: cell-based, human; conditions: A549, 10, 20, and 30 μM, 24 h
Procedure: To further evaluate the role of 2H-1,4-benzoxazin-3(4H)-one-linked 1,2,3-Triazole derivatives in regulating autophagy, A549 cells were treated with different doses (10, 20, and 30 μM) of compounds 14b and 14c for 24 h, and the autophagosome was detected by MDC (monodansylcadaverine) probe.
A549 cells were seeded at a density of 2 × 10^3 cells per well in a 96-well plate and treated with compounds at concentrations of 0, 5, 10, 20, and 30 μM for 24 h. After treatment, the medium was replaced, and cells were stained with monodansylcadaverine for 1 h in the dark at 37°C. Cells were then imaged using a confocal microscope.

A549 cells [2] = test: DNA damage staining (γ-H2AX antibody and DAPI); format: cell-based, human; conditions: A549, 5, 10, and 20 μM, 24 h
Procedure: In order to further verify the effects of 2H-1,4-benzoxazin-3(4H)-one linked 1,2,3-triazole derivatives on DNA damage, A549 cells were treated with different doses (5, 10, and 20 μM) of compounds 14b and 14c. After 24-h treatment, cells were stained with γ-H2AX antibody and DAPI, cell nuclei were stained blue, and DNA-damaged cells were stained green. Using confocal microscopy, cells were observed and photographed.
A549 cells were seeded at a density of 2 × 10^3 cells per well in 96-well plates. Cells were treated with different concentrations (0, 5, 10, 20, and 30 μM) of the compounds for 24 h. DNA damage was assessed using a DNA damage detection kit. The cell nuclei were stained blue, while DNA-damaged cells were stained green. Cells were then observed and photographed using a fluorescence microscope.

A549 cells [3] = test: Annexin V-FITC/PI apoptosis quantification by flow cytometry; format: cell-based, human; conditions: 48 h
Procedure: We used these two compounds to clarify this function and explore the underlying mechanism. To investigate whether the new compound could induce cell apoptosis, A549 cells were exposed to different concentrations of 14b and 14c for 48 h. The cells were then stained with Annexin V-FITC and propidium iodide (PI). The Annexin V-FITC/PI staining was performed to quantify the percentage of apoptotic cells by flow cytometry.
A549 cells were exposed to different concentrations of 14b and 14c (5 μM, 10 μM, and 20 μM) for 48 h. Cells were collected and stained with Annexin V-FITC and PI, and apoptotic cells were measured by flow cytometry. Data are presented as mean ± SEM, *P < 0.05.
A549 cells were plated at a density of 3 × 10^5 cells per well in a six-well plate. Compounds at concentrations of 0, 5, 10, or 20 μM were added to the cells for 48 h. Cells were then collected, washed with PBS, and stained with Annexin V-FITC and propidium iodide for 20 min. Apoptotic cells were quantified using a flow cytometer, and the data were further analyzed using FlowJo software.

A549 cells [4] = test: Calcein AM/PI live/dead viability assay; format: cell-based, human; conditions: 24 h
Procedure: To investigate the role of 14b and 14c in regulating cell proliferation and death, A549 cells were treated with different concentrations of compounds for 24 h, and the live/dead cell numbers were then observed by staining with calcein AM and propidium iodide.
FIGURE 4 Compound 14b and 14c increased dead cells and decreased live cells. (A–B) A549 cells were treated with different concentrations of 14b and 14c (5 μM, 10 μM, and 20 μM) for 24 h (C–D) BEAS-2B cells were treated with different concentrations of 14b and 14c (5 μM, 10 μM, and 20 μM) for 24 h. Live and dead cell numbers were stained with calcein in AM and PI, respectively, and cells were observed by confocal microscopy. Data are presented as mean ± SEM, *P < 0.05.
The live/dead viability assay was performed using the Calcein/PI Live/Dead Viability Assay Kit. A549 cells were plated at a density of 5 × 10^3 cells per well in a 96-well plate and allowed to adhere overnight. Compounds were then added at concentrations of 0, 5, 10, or 20 μM for 24 h. After replacing the medium with fresh culture medium containing Calcein AM and propidium iodide, the cells were incubated for 30 min at 37°C in the dark. Live and dead cells were observed and photographed using a confocal microscope.

HCT-116 = test: CCK-8 cell viability assay; format: cell-based; conditions: Homo sapiens, HCT-116, 40 μM, 48 h, read-out: Cell viability (100%), 40 μM, 48 h, HCT-116
Procedure: as §1, §2, §3

SKOV3 = test: CCK-8 cell viability assay; format: cell-based; conditions: Homo sapiens, SK-OV-3, SKOV3, 40 μM, 48 h, read-out: Cell viability (100%), 40 μM, 48 h, SKOV3
Procedure: as §1, §2, §3

MCF-7 = test: CCK-8 cell viability assay; format: cell-based; conditions: Homo sapiens, MCF7, MCF-7, 40 μM, 48 h, read-out: Cell viability (100%), 40 μM, 48 h, MCF-7
Procedure: as §1, §2, §3

[5] = A549, 48 h, read-out: IC50 48 h
[6] = A549, 72 h, read-out: IC50 72 h

| Compound | IC50 (A549; [5]) [µM] | IC50 (A549; [6]) [µM] | viability at 40 µM (A549) [%] | inhibition at 40 µM (A549) [%] | autophagy (autophagosome, MDC probe) (A549 cells [1]) | DNA damage (γ-H2AX staining) (A549 cells [2]) | percentage of early and late apoptotic cells (A549 cells [3]; A549, 5 μM) [%] | percentage of early and late apoptotic cells (A549 cells [3]; A549, 10 μM) [%] | percentage of early and late apoptotic cells (A549 cells [3]; A549, 20 μM) [%] | live/dead cell numbers compared with compound 14b (A549 cells [4]; A549, 5, 10, 20 μM) | viability at 40 µM (HCT-116) [%] | viability at 40 µM (SKOV3) [%] | viability at 40 µM (MCF-7) [%] | Dead cells (A549 cells [4]; A549, 5 μM) | Dead cells (A549 cells [4]; A549, 10 μM and 20 μM) | Live cells (A549 cells [4]; A549, different concentrations (5, 10, 20 μM)) |
| --- | --- | --- | --- | --- | --- | --- | --- | --- | --- | --- | --- | --- | --- | --- | --- | --- |
| O=C1COc2ccc(NC(=O)c3cccc(-c4cn(-c5ccccc5F)nn4)c3)cc2N1 [Compound 14c] | 24.1 ± 3.83 | 18.5 ± 0.59 | 22.6 ± 0.88 | > 50 | autophagy was largely induced | significantly led to DNA damage in a concentration-dependent manner | 12.57 | 27.21 | 72.02 | The same results were also observed | 65.3 ± 4.55 | 57.2 ± 4.16 | 110 ± 2.45 |  |  |  |
| O=C1COc2ccc(NC(=O)c3cccc(-c4cn(-c5cccc(Br)c5)nn4)c3)cc2N1 [Compound 14b] | 25.1 ± 4.62 | 7.59 ± 0.31 | 27 ± 0.98 | > 50 | autophagy was largely induced | significantly led to DNA damage in a concentration-dependent manner | 13.92 | 25.85 | 49.04 |  | 125 ± 2.78 | 98.02 ± 0.87 | 114 ± 1.68 | increased | greatly and largely increased | consistently decreased |
